Measured values published in US11739100B2, “2,3-dihydro-1h-imidazo{1,2-a}pyrimidin-5-one and this 1,2,3,4-tetrahydropyrimido{1,2-a}pyrimidin-6-one derivatives comprising a substituted morpholine, preparation thereof and pharmaceutical use thereof” (SANOFI, priority 2012, dated 2023).

Molecular target: T1, recombinant Vps34 (Homo sapiens, UniProt Q8NEB9)
T1 construct: purchased Invitrogen PV5126
Assay: Phosphorylation of phosphatidylinositol (PI) by Vps34 in vitro, ADP detected by TR-FRET (HTRF Transcreener ADP)
Assay type: biochemical
Details: 10 μM ATP, 55 μg/ml PI, approximately 3 nM Vps34, 1 hour at ambient temperature; absolute IC50, mean of two independent experiments; read-out: IC50 activity range

T1 sequence (Q8NEB9 whole entry): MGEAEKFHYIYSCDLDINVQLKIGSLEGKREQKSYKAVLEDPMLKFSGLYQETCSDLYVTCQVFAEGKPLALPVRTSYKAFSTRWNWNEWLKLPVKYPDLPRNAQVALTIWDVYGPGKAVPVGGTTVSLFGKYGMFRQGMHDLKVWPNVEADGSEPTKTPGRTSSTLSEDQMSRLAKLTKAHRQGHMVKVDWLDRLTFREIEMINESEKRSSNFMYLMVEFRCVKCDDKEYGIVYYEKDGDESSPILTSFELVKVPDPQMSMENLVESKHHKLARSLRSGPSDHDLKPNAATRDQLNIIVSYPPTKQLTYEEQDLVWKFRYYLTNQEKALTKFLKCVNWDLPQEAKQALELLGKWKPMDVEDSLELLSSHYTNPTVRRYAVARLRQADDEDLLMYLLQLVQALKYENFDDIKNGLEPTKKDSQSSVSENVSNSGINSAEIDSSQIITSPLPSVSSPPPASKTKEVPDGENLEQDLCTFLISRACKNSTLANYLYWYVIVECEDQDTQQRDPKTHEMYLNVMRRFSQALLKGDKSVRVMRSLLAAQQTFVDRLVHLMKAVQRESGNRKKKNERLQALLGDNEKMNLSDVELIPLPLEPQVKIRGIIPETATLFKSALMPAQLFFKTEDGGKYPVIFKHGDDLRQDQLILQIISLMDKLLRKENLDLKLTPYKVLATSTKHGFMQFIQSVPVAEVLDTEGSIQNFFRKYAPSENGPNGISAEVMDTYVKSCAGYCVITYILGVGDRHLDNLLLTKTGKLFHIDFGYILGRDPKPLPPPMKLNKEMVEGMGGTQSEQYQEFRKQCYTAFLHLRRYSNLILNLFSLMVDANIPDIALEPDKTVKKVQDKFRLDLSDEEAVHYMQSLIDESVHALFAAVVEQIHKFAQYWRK

**Q.** Which IC50 does the source give for C[C@@H]1COCCN1c1cc(=O)n2c(n1)N(CC(=O)c1ccccn1)CC[C@@H]2C(F)(F)F [Example 102, (R)-2-((R)-3-Methyl-morpholin-4-yl)-9-(2-oxo-2-pyridin-2-yl-ethyl)-6-trifluoromethyl-6,7,8,9-tetrahydro-pyrimido[1,2-a]-pyrimidin-4-one] here?
**A.** < 0.01 µM

**Q.** How did the IC50 turn out when Cc1nc(CN2c3nc(N4CC5CCC(C4)O5)cc(=O)n3CC[C@H]2C(F)(F)F)no1 [Example 270, (S)-9-(5-Methyl-[1,2,4]oxadiazol-3-yl-methyl)-2-(8-oxa-3-azabicyclo[3.2.1]oct-3-yl)-8-trifluoromethyl-6,7,8,9-tetrahydro-pyrimido[1,2-a]-pyrimidin-4-one] was run?
**A.** 0.01 to 0.1 µM

**Q.** How did the IC50 turn out when C[C@@H]1COCCN1c1cc(=O)n2c(n1)N(Cc1ccnn1C(F)F)[C@](C)(C(F)(F)F)CC2 [Example 214, (S)-9-(2-Difluoromethyl-2H-pyrazol-3-ylmethyl)-8-methyl-2-((R)-3-methylmorpholin-4-yl)-8-trifluoromethyl-6,7,8,9-tetrahydro-pyrimido[1,2-a]-pyrimidin-4-one] was run?
**A.** < 0.01 µM

**Q.** For C[C@@H]1COC[C@@H](C)N1c1cc(=O)n2c(n1)N(Cc1ccnn1C(F)F)[C@H](C(F)(F)F)CC2 [Example 154, (S)-9-(2-Difluoromethyl-2H-pyrazol-3-ylmethyl)-2-((3R,5R)-3,5-dimethyl-morpholin-4-yl)-8-trifluoromethyl-6,7,8,9-tetrahydro-pyrimido[1,2-a]-pyrimidin-4-one], which IC50 is on record?
**A.** < 0.01 µM

**Q.** With C[C@@H]1COCCN1c1cc(=O)n2c(n1)N(Cc1cocn1)CC[C@@H]2C(F)(F)F [Example 110, (R)-2-((R)-3-Methyl-morpholin-4-yl)-9-oxazol-4-ylmethyl-6-trifluoromethyl-6,7,8,9-tetrahydro-pyrimido[1,2-a]-pyrimidin-4-one] as the compound, how does the IC50 read?
**A.** 0.01 to 0.1 µM

**Q.** Which IC50 does the source give for C[C@@H]1COCCN1c1cc(=O)n2c(n1)N(Cc1cc(Cl)ccn1)[C@H](C(F)(F)F)CC2 [Example 65, (S)-9-(4-Chloro-pyridin-2-ylmethyl)-2-((R)-3-methyl-mopholin-4-yl)-8-trifluoromethyl-6,7,8,9-tetrahydro-pyrimido[1,2-a]-pyrimidin-4-one] here?
**A.** < 0.01 µM

**Q.** Cc1nc(CN2CC[C@H](C(F)(F)F)n3c2nc(N2CCOC[C@H]2C)c(F)c3=O)no1 [Example 21, (R)-3-Fluoro-2-((R)-3-methylmorpholin-4-yl)-9-(5-methyl-[1,2,4]oxadiazol-3-yl-methyl)-6-trifluoromethyl-6,7,8,9-tetrahydro-pyrimido[1,2-a]-pyrimidin-4-one] was tested. Which IC50 did it give?
**A.** < 0.01 µM

**Q.** How did the IC50 turn out when CC(C)Oc1ccc(CN2c3nc(N4CCOC[C@H]4C)cc(=O)n3CC[C@H]2C(F)(F)F)cn1 [Example 229, (S)-9-(6-Isopropoxy-pyridin-3-ylmethyl)-2-((R)-3-methyl-morpholin-4-yl)-8-trifluoromethyl-6,7,8,9-tetrahydro-pyrimido[1,2-a]-pyrimidin-4-one] was run?
**A.** < 0.01 µM

**Q.** With C[C@@H]1COCCN1c1cc(=O)n2c(n1)N(CC(=O)N1CCCCC1)[C@H](C(F)(F)F)CC2 [Example 233, (S)-2-((R)-3-Methyl-morpholin-4-yl)-9-(2-oxo-2-piperidin-1-yl-ethyl)-8-trifluoromethyl-6,7,8,9-tetrahydro-pyrimido[1,2-a]-pyrimidin-4-one] as the compound, how does the IC50 read?
**A.** < 0.01 µM

**Q.** C[C@@H]1COCCN1c1cc(=O)n2c(n1)N(Cc1cccc(F)n1)[C@H](C(F)(F)F)CC2 [Example 224, (S)-9-(6-Fluoropyridin-2-ylmethyl)-2-((R)-3-methylmorpholin-4-yl)-8-trifluoromethyl-6,7,8,9-tetrahydro-pyrimido[1,2-a]-pyrimidin-4-one] was tested. Which IC50 did it give?
**A.** < 0.01 µM

**Q.** With C[C@@H]1COCCN1c1cc(=O)n2c(n1)N(CC(=O)c1ccccc1)[C@H](C(F)(F)F)CC2 [Example 99, (S)-2-((R)-3-Methyl-morpholin-4-yl)-9-(2-oxo-2-phenylethyl)-8-trifluoromethyl-6,7,8,9-tetrahydro-pyrimido[1,2-a]-pyrimidin-4-one] as the compound, how does the IC50 read?
**A.** < 0.01 µM

**Q.** With C[C@@H]1COCCN1c1cc(=O)n2c(n1)N(Cc1ccn(C(F)F)n1)[C@H](C(F)(F)F)CC2 [Example 32, (S)-9-(1-Difluoromethyl-1H-pyrazol-3-ylmethyl)-2-((R)-3-methyl-morpholin-4-yl)-8-trifluoromethyl-6,7,8,9-tetrahydro-pyrimido[1,2-a]-pyrimidin-4-one] as the compound, how does the IC50 read?
**A.** < 0.01 µM

**Q.** With C[C@@H]1COCCN1c1nc2n(c(=O)c1F)CC[C@@H](C(F)(F)F)N2CC(=O)N1CCCO1 [Example 314, (S)-3-Fluoro-9-(2-isoxazolidin-2-yl-2-oxoethyl)-2-((R)-3-methylmorpholin-4-yl)-8-trifluoromethyl-6,7,8,9-tetrahydro-pyrimido[1,2-a]-pyrimidin-4-one] as the compound, how does the IC50 read?
**A.** < 0.01 µM

**Q.** How did the IC50 turn out when C[C@@H]1COCCN1c1nc2n(c(=O)c1F)CC[C@@H](C(F)(F)F)N2c1cccnc1 [Example 47, (S)-3-Fluoro-2-((R)-3-methylmorpholin-4-yl)-9-pyridin-3-yl-8-trifluoromethyl-6,7,8,9-tetrahydro-pyrimido[1,2-a]-pyrimidin-4-one] was run?
**A.** 0.01 to 0.1 µM

**Q.** With C[C@@H]1COCCN1c1cc(=O)n2c(n1)N(CC(=O)C1CC1)[C@](C)(C(F)(F)F)C2 [Example 31, (S)-1-(2-Cyclopropyl-2-oxoethyl)-2-methyl-7-((R)-3-methyl-morpholin-4-yl)-2-trifluoromethyl-2,3-dihydro-1H-imidazo[1,2-a]-pyrimidin-5-one] as the compound, how does the IC50 read?
**A.** < 0.01 µM

**Q.** How did the IC50 turn out when C[C@@H]1COCCN1c1cc(=O)n2c(n1)N(CC(=O)N(C)C)[C@H](C(F)(F)F)CC2 [Example 222, N,N-Dimethyl-2-[(S)-8-((R)-3-methyl-morpholin-4-yl)-6-oxo-2-trifluoromethyl-3,4-dihydro-2H,6H-pyrimido[1,2-a]-pyrimidin-1-yl]-acetamide] was run?
**A.** 0.01 to 0.1 µM

**Q.** How did the IC50 turn out when C[C@@H]1COCCN1c1nc2n(c(=O)c1F)CC[C@@H](C(F)(F)F)N2Cc1nc(C2CC2)no1 [Example 249, (S)-9-(3-Cyclopropyl-[1,2,4]oxadiazol-5-yl-methyl)-3-fluoro-2-((R)-3-methyl-morpholin-4-yl)-8-trifluoromethyl-6,7,8,9-tetrahydro-pyrimido[1,2-a]-pyrimidin-4-one] was run?
**A.** < 0.01 µM

**Q.** How did the IC50 turn out when C[C@@H]1COC[C@@H](C)N1c1cc(=O)n2c(n1)N(c1ccnc(Cl)c1)[C@H](C(F)(F)F)CC2 [Example 159, (S)-9-(2-Chloro-pyridin-4-yl)-2-((3R,5R)-3,5-dimethyl-morpholin-4-yl)-8-trifluoromethyl-6,7,8,9-tetrahydro-pyrimido[1,2-a]-pyrimidin-4-one] was run?
**A.** < 0.01 µM

**Q.** Cc1nnc(CN2c3nc(N4CCOC[C@H]4C)cc(=O)n3CC[C@H]2C(F)(F)F)s1 [Example 123, (S)-2-((R)-3-Methyl-morpholin-4-yl)-9-(5-methyl-[1,3,4]thiadiazol-2-yl-methyl)-8-trifluoromethyl-6,7,8,9-tetrahydro-pyrimido[1,2-a]-pyrimidin-4-one] was tested. Which IC50 did it give?
**A.** 0.01 to 0.1 µM

**Q.** C[C@@H]1COCCN1c1cc(=O)n2c(n1)N(Cc1ccnc(Cl)c1)[C@H](C(F)(F)F)CC2 [Example 76, (S)-9-(2-Chloro-pyridin-4-ylmethyl)-2-((R)-3-methyl-morpholin-4-yl)-8-trifluoromethyl-6,7,8,9-tetrahydro-pyrimido[1,2-a]-pyrimidin-4-one] was tested. Which IC50 did it give?
**A.** < 0.01 µM

**Q.** COCCN1c2nc(N3CCOC[C@H]3C)c(F)c(=O)n2CC[C@H]1C(F)(F)F [Example 20, (S)-3-Fluoro-9-(2-methoxy-ethyl)-2-((R)-3-methylmorpholin-4-yl)-8-trifluoromethyl-6,7,8,9-tetrahydro-pyrimido[1,2-a]-pyrimidin-4-one] was tested. Which IC50 did it give?
**A.** < 0.01 µM
